This is an account of results in patent EP3046573B1, “AMYLIN ANALOGUES” (Zealand Pharma A/S, priority 2013, dated 2015).

The target in data set [1] is T1, human calcitonin receptor (hCTR2) (Homo sapiens, UniProt P30988).
T1 construct: expressed in transfected cells
T1 sequence (P30988 25-474): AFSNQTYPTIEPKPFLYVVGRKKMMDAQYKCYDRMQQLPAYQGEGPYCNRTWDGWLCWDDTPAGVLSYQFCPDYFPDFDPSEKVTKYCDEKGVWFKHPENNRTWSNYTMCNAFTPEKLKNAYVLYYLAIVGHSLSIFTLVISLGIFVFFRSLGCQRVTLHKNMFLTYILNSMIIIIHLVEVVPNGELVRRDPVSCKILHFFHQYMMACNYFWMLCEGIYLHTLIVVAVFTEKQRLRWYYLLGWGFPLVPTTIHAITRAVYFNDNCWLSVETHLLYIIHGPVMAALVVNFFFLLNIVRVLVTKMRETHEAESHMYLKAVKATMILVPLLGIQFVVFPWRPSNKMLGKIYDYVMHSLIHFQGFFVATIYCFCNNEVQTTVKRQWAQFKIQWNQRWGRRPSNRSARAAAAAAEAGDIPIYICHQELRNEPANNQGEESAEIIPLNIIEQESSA
As to the kind of experiment: hCTR2 assay: induction of cAMP (AlphaScreen cAMP Assay kit) in COS7 cells expressing hCTR2. It is filed as cell-based. The note with it: cAMP induction in COS7 cells expressing hCTR2; average of a minimum of 3 determinations; read-out: hCTR2 EC50. The procedure, abridged: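 Peptide-induced cAMP in hCTR2-expressing COS7 cells, 15 min at 37° C with phosphodiesterase inhibitor IBMX (100 µM), detected by AlphaScreen; potency from 4PL curves.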

Data set [2] addresses T2, human amylin receptor 3 (hAMYR3) consisting of hCTR2 co-expressed with human Receptor Activity Modifying Protein 3 (hRAMP3) (Homo sapiens, UniProt O60896+P30988).
T2 construct: expressed in transfected cells
T2 sequence (P30988 25-474): T1 sequence (P30988 25-474)
T2 sequence (O60896 24-148 partner): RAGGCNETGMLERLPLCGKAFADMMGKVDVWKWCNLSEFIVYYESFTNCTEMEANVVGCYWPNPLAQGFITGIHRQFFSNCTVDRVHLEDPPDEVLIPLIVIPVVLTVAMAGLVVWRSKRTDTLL
Briefly: hAMYR3 assay: induction of cAMP (AlphaScreen cAMP Assay kit) in COS7 cells expressing hAMYR3. The note with it: cAMP induction in COS7 cells expressing hAMYR3; average of a minimum of 3 determinations; read-out: hAMY R3 EC50. Format: cell-based. In outline: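 cAMP accumulation read by AlphaScreen in lysates of RAMP-naive COS7 cells stably transfected with hCTR2 plus hRAMP3. Cells exposed to peptide dilutions for 15 min, 37° C, with 100 µM IBMX; 4PL fitting gave EC50 and efficacy relative to pramlintide.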

Data set [3] can be described thus: Solubility assessment (turbidity absorbance at 325 nm). It is filed as physicochemical. The note with it: stock 2 mg/ml diluted 1:1, ambient temperature (typically 25°C), n=1; for Solubility, Acetate buffer pH 4: 100 mM acetate buffer pH 4.0; for Solubility, Acetate buffer pH 5: 100 mM acetate buffer pH 5.0; for Solubility, Histidine buffer pH 6: 100 mM histidine buffer pH 6.0; for Solubility, Histidine buffer pH 7: 100 mM histidine buffer pH 7.0; for Solubility, Phosphate buffer pH 6: 100 mM phosphate buffer pH 6.0; for Solubility, Phosphate buffer pH 7: 100 mM phosphate buffer pH 7.0; for Solubility, Phosphate buffer pH 7.5: 100 mM phosphate buffer pH7.5. In outline: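 Turbidimetric screen across pH 4.0–7.5 in 100 mM acetate, histidine and phosphate buffers. A 2 mg/ml peptide stock (pH 2.5) was diluted 1:1 into each, then A325 measured at ambient temperature; values ≤ 0.02 AU denoted solubility of 1 mg/ml or more.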

Each structure is given as a SMILES string. Numbered stars: 1 amine (or outer) side, 2 acyl side, 3 side chain; on linkers, the order of the positions; unused ones are H or OH. Bridge positions count the residues as written; N and C are the ends. Square brackets hold non-standard residues; d marks the D form. Peptide text beside a SMILES is read from it. * marks the point of attachment. C20 diacid = O=C(O)CCCCCCCCCCCCCCCCCCC(=O)*; γGlu = O=C(O)[C@H](CCC(=O)[*:2])N[*:1]; NMeI = CC[C@H](C)[C@H](NC)C(=O)O; Sar = CNCC(=O)O

For the compound `CC[C@H](C)[C@@H](C(=O)N[C@@H](CC(C)C)C(=O)N[C@@H](CO)C(=O)N[C@@H](CO)C(=O)N[C@H](C(=O)N[C@@H](CCC(=O)O)C(=O)N[C@H](C(=O)NCC(=O)N[C@@H](CO)C(=O)N[C@@H](CCC(=O)O)C(=O)N[C@H](C(=O)N1CCC[C@H]1C(N)=O)[C@@H](C)O)C(C)C)[C@@H](C)O)N(C)C(=O)[C@H](C)NC(=O)CN(C)C(=O)[C@H](Cc1ccccc1)NC(=O)[C@H](CO)NC(=O)[C@H](CO)NC(=O)[C@H](CO)NC(=O)[C@H](CO)NC(=O)[C@H](CCCNC(=N)N)NC(=O)[C@H](Cc1c[nH]cn1)NC(=O)[C@H](CC(C)C)NC(=O)[C@H](Cc1ccccc1)NC(=O)[C@H](CCC(=O)O)NC(=O)[C@H](C)NC(=O)[C@H](CC(C)C)NC(=O)[C@H](CCCNC(=N)N)NC(=O)[C@H](CO)NC(=O)[C@@H](NC(=O)[C@H](C)NC(=O)[C@@H]1CSSC[C@H](NC(=O)[C@H](CCCNC(=N)N)NC(=O)CC[C@H](NC(=O)CCCCCCCCCCCCCCCCCCC(=O)O)C(=O)O)C(=O)N[C@@H](CO)C(=O)N[C@@H]([C@@H](C)O)C(=O)N[C@@H](C)C(=O)N[C@@H]([C@@H](C)O)C(=O)N1)[C@@H](C)O` [Compound 133, [19CD]-isoGlu-RC()STATC()ATSRLAEFLHRSSSSF-Gly(Me)-A-Ile(Me)-LSSTEVGSETP-NH2] ({C20 diacid-γGlu}-RCSTATCATSRLAEFLHRSSSSF[Sar]A[NMeI]LSSTEVGSETP-NH2; disulfide 2-7), the half-maximal effective concentration (EC50) in data set [1] is 300 pM. Besides, the EC50 in data set [2] is 360 pM. In data set [3], the “Solubility, Acetate buffer pH 4” value was “SS (SS indicates solubility ≥ 1mg/ml)”; the “Solubility, Acetate buffer pH 5” value was “SS (SS indicates solubility ≥ 1mg/ml)”; the “Solubility, Histidine buffer pH 6” value is recorded as “SS (SS indicates solubility ≥ 1mg/ml)”; the “Solubility, Histidine buffer pH 7” value is on record as “SS (SS indicates solubility ≥ 1mg/ml)”. Moreover, in data set [3], the “Solubility, Phosphate buffer pH 6” value is given as “SS (SS indicates solubility ≥ 1mg/ml)”; the “Solubility, Phosphate buffer pH 7” value is given as “SS (SS indicates solubility ≥ 1mg/ml)”; the “Solubility, Phosphate buffer pH 7.5” value was “SS (SS indicates solubility ≥ 1mg/ml)”.

With `CC[C@H](C)[C@@H](C(=O)N[C@@H](CC(C)C)C(=O)N[C@@H](CO)C(=O)N[C@@H](CO)C(=O)N[C@H](C(=O)N[C@@H](CCC(=O)O)C(=O)N[C@H](C(=O)NCC(=O)N[C@@H](CO)C(=O)N[C@@H](CCC(=O)O)C(=O)N[C@H](C(=O)N1CCC[C@H]1C(N)=O)[C@@H](C)O)C(C)C)[C@@H](C)O)N(C)C(=O)[C@H](C)NC(=O)CN(C)C(=O)[C@H](Cc1ccccc1)NC(=O)[C@H](CO)NC(=O)[C@H](CO)NC(=O)[C@H](CO)NC(=O)[C@H](CO)NC(=O)[C@H](CCCNC(=N)N)NC(=O)[C@H](Cc1c[nH]cn1)NC(=O)[C@H](CC(C)C)NC(=O)[C@H](Cc1ccccc1)NC(=O)[C@H](CCC(=O)O)NC(=O)[C@H](C)NC(=O)[C@H](CC(C)C)NC(=O)[C@H](CCCNC(=N)N)NC(=O)[C@H](CCC(=O)O)NC(=O)[C@@H](NC(=O)[C@H](C)NC(=O)[C@@H]1CSSC[C@H](NC(=O)[C@H](CCCNC(=N)N)NC(=O)CC[C@H](NC(=O)CCCCCCCCCCCCCCCCCCC(=O)O)C(=O)O)C(=O)N[C@@H](CO)C(=O)N[C@@H]([C@@H](C)O)C(=O)N[C@@H](C)C(=O)N[C@@H]([C@@H](C)O)C(=O)N1)[C@@H](C)O` [Compound 135, [19CD]-isoGlu-RC()STATC()ATERLAEFLHRSSSSF-Gly(Me)-A-Ile(Me)-LSSTEVGSETP-NH2] ({C20 diacid-γGlu}-RCSTATCATERLAEFLHRSSSSF[Sar]A[NMeI]LSSTEVGSETP-NH2; disulfide 2-7), the EC50 in data set [1] turned out to be 760 pM. Moreover, in data set [2], the EC50 is 610 pM. In addition, in data set [3], the “Solubility, Acetate buffer pH 4” value is “SS (SS indicates solubility ≥ 1mg/ml)”; the “Solubility, Acetate buffer pH 5” value is “SS (SS indicates solubility ≥ 1mg/ml)”; the “Solubility, Histidine buffer pH 6” value is “SS (SS indicates solubility ≥ 1mg/ml)”; the “Solubility, Histidine buffer pH 7” value is listed as “SS (SS indicates solubility ≥ 1mg/ml)”. Also, in data set [3], the “Solubility, Phosphate buffer pH 6” value is given as “SS (SS indicates solubility ≥ 1mg/ml)”; the “Solubility, Phosphate buffer pH 7” value is recorded as “SS (SS indicates solubility ≥ 1mg/ml)”; the “Solubility, Phosphate buffer pH 7.5” value is given as “SS (SS indicates solubility ≥ 1mg/ml)”.

Take `CC[C@H](C)[C@@H](C(=O)N[C@@H](CC(C)C)C(=O)N[C@@H](CO)C(=O)N[C@@H](CO)C(=O)N[C@H](C(=O)N[C@@H](CCC(=O)O)C(=O)N[C@H](C(=O)NCC(=O)N[C@@H](CO)C(=O)N[C@@H](CCC(=O)O)C(=O)N[C@H](C(=O)N1CCC[C@H]1C(N)=O)[C@@H](C)O)C(C)C)[C@@H](C)O)N(C)C(=O)[C@H](C)NC(=O)CN(C)C(=O)[C@H](Cc1ccccc1)NC(=O)[C@H](CO)NC(=O)[C@H](CO)NC(=O)[C@H](CO)NC(=O)[C@H](CO)NC(=O)[C@H](CCCNC(=N)N)NC(=O)[C@H](Cc1c[nH]cn1)NC(=O)[C@H](CC(C)C)NC(=O)[C@H](Cc1ccccc1)NC(=O)[C@H](CCC(=O)O)NC(=O)[C@H](C)NC(=O)[C@H](CC(C)C)NC(=O)[C@H](CCCNC(=N)N)NC(=O)[C@H](CCC(=O)O)NC(=O)[C@@H](NC(=O)[C@H](C)NC(=O)[C@@H]1CSSC[C@H](NC(=O)[C@H](CCCNC(=N)N)NC(=O)CC[C@H](NC(=O)CCCCCCCCCCCCCCCCCCC(=O)O)C(=O)O)C(=O)N2CCC[C@H]2C(=O)N[C@@H]([C@@H](C)O)C(=O)N[C@@H](C)C(=O)N[C@@H]([C@@H](C)O)C(=O)N1)[C@@H](C)O` [Compound 136, [19CD]-isoGlu-RC()PTATC()ATERLAEFLHRSSSSF-Gly(Me)-A-Ile(Me)-LSSTEVGSETP-NH2] ({C20 diacid-γGlu}-RCPTATCATERLAEFLHRSSSSF[Sar]A[NMeI]LSSTEVGSETP-NH2; disulfide 2-7): in data set [1], the concentration for a half-maximal effect (EC50) was found to be 120 pM. For the same compound, the EC50 in data set [2] amounted to 290 pM. For the same compound, in data set [3], the “Solubility, Acetate buffer pH 4” value is listed as “SS (SS indicates solubility ≥ 1mg/ml)”; the “Solubility, Acetate buffer pH 5” value is “SS (SS indicates solubility ≥ 1mg/ml)”; the “Solubility, Histidine buffer pH 6” value is on record as “SS (SS indicates solubility ≥ 1mg/ml)”; the “Solubility, Histidine buffer pH 7” value is on record as “SS (SS indicates solubility ≥ 1mg/ml)”. Besides, in data set [3], the “Solubility, Phosphate buffer pH 6” value was “SS (SS indicates solubility ≥ 1mg/ml)”; the “Solubility, Phosphate buffer pH 7” value is listed as “SS (SS indicates solubility ≥ 1mg/ml)”; the “Solubility, Phosphate buffer pH 7.5” value is on record as “SS (SS indicates solubility ≥ 1mg/ml)”.
